pIC50: −log10 of the molar value.
Tests used:
[1] = Toxicity against human HL60 cells assessed as inhibition of cell proliferation; type: cell-based; conditions: HL-60 cells
[2] = Antiinflammatory activity in PMA-induced human neutrophils assessed as inhibition of superoxide production; type: functional, cell-based; conditions: Neutrophil

## CC1=CC[C@H]2C(C)(C)CCC[C@]2(C)[C@H]1CC1=C(O)C(=O)C=CC1=O
[1]
  pIC50: 6.47
[2]
  pIC50: 4.96

## CC(=O)Oc1ccc(O)c(C[C@H]2C(C)=CC[C@H]3C(C)(C)CCC[C@]23C)c1O
[1]
  pIC50: 6.43
[2]
  pIC50: 5.52
